Values quoted from earlier work in publication PMC6453670 (International Journal for Parasitology: Drugs and Drug …, 2019).

Tests used:
[1] = tested on: Toxoplasma; settings: longer treatment duration; ref Winzer et al., 2015
[2] = tested on: Neospora; settings: longer treatment duration; ref Ojo et al., 2014; Winzer et al., 2015

In the case of `CCOc1ccc2cc(-c3nn(CC4CCN(C)CC4)c4ncnc(N)c34)ccc2c1` [BKI 1294], the “Dose at which morphological alterations were seen in vitro” value [1] is given as 2.5 μM and the “Dose at which morphological alterations were seen in vitro” value [2] is given as 2.5 μM.
